In patent US20130059830A1, “NOVEL PROLYLCARBOXYPEPTIDASE INHIBITORS” (priority 2010, published 2013):

test system: obese, leptin deficient mice; assay: not given; conditions: systemic administration; cited from earlier work

| Compound | overnight food intake |
| --- | --- |
| t-butyl carbamate-prolyl prolinal [BPP] | suppression of overnight food intake |

molecular target: T1, human PrCP (Homo sapiens, UniProt P42785); assay: Prolylcarboxypeptidase (PRCP) enzyme activity assay, fluorescence intensity kinetic assay, human enzyme; format: biochemical; conditions: recombinant human PrCP, 15 uM substrate, pH 5.5, 37° C.
T1 construct: made in house
T1 sequence (P42785 46-496): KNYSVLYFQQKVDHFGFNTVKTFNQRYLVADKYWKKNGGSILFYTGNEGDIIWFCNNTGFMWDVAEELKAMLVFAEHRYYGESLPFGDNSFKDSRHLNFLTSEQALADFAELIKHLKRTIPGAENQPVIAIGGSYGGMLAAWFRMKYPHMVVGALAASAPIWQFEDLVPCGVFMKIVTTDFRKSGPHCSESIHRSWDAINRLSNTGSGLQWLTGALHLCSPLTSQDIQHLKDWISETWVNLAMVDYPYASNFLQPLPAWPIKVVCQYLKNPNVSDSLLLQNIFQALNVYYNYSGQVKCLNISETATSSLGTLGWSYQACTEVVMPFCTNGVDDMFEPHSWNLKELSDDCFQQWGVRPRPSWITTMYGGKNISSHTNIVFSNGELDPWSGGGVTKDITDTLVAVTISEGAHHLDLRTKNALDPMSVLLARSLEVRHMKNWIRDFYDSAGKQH
Method: The potency of compounds of formula I against PrCP was determined by a fluorescence intensity kinetic assay measuring the IC50 values of PrCP inhibitor test compounds. […] The assay was run on a Perkin Elmer Envision 2103 plate reader using a 320 nm excitation filter and a 405 emission filter. The assay was performed using a Hamilton Star liquid handling workstation. The assay employed the internally quenched fluorescent substrate (1S)-1-carboxy-5-[(2,4-dinitrophenyl)amino]pentyl N-[(7-methoxy-2-oxo-2H-chromen-4-yl)acetyl]-L-alanyl-L-prolinate prepared in house.
The assay was run in a 384-well microtiter plate at 37° C. with a total volume of 50 uL. Final assay concentrations were 0.13 nM human PrCP (CHO) or 0.09 nM mouse PrCP (CHO) enzyme, 15 uM substrate and varying concentrations of inhibitor in buffer containing 10 mM NaOAc, 100 mM NaCl and 19.5 ug/mL BSA at pH 5.5. The assay also contained 2% DMSO used to solubilize the substrate and inhibitor. Inhibitors were prepared in 100% DMSO and serial diluted (in 100% DMSO) to generate 11 point titration curves. Either 39 uL of human or mouse PrCP enzyme was added to the wells of the assay plate, followed by a 1 uL addition of the serially diluted inhibitor and mixed three times using a 30 uL mix volume. The reaction was initiated by the addition of 10 uL substrate and mixed three times using a 30 uL mix volume. The reactions were monitored continuously over 25 min at 37° C. to obtain initial velocities. […] values were calculated by comparing the resulting rates of reaction of the inhibited and control initial velocities.
The enzymes were diluted in a mixture of 10 mM NaOAc (pH 5.5)/100 mM NaCl buffer containing 25 ug/mL bovine serum albumin that had been warmed to 37° C. in a water bath. The PrCP inhibitor test compounds were plated in 100% DMSO with a highest concentration of 500 uM. There were 12 dilution points for each compound tested including a blank with DMSO only. The test compounds from the source titration plate were transferred into the assay reaction plate at a 1:50 dilution using the Hamilton Star workstation and mixed, resulting in a final concentration for the test compounds in the range of 10,000 to 0.066 nM. Likewise, two control compounds were similarly titrated and included in each assay, with final starting concentrations starting at 10,000 nM and 200 nM, respectively. The reaction was initiated by the addition of 75 uM of the (1S)-1-carboxy-5-[(2,4-dinitrophenyl)amino]pentyl N-[(7-methoxy-2-oxo-2H-chromen-4-yl)acetyl]-L-alanyl-L-prolinate substrate, which was diluted in a mixture of 10 mM NaOAc (pH 5.5)/100 mM NaCl that had been warmed to 37° C. in a water bath, dispensed using the Hamilton Star workstation and mixed. The substrate was solubilized in 100% DMSO prior to dilution into the assay. The final assay concentrations in the 50 uL reactions were 15 uM of (1S)-1-carboxy-5-[(2,4-dinitrophenyl)amino]pentyl N-[(7-methoxy-2-oxo-2H-chromen-4-yl)acetyl]-L-alanyl-L-prolinate substrate, 0.13 nM Human PrCP (CHO) or 0.09 nM Mouse PrCP (CHO), and 2% DMSO.

| Compound | IC50 |
| --- | --- |
| O=C(NCCc1ccc(F)cc1)N1CCCC(c2cc(-c3ccc(F)cc3)nn2-c2ncccn2)C1 (stereo not shown) [Example 82] | 27 nM |
| CC(C)(C)OC(=O)N1C[C@H](c2cc(-c3ccc(F)cc3)nn2-c2ncccn2)CC[C@@H]1CCc1ccccc1 (racemic) [Example 5, tert-Butyl 5-[3-(4-fluorophenyl)-1-(pyrimidin-2-yl)-1H-pyrazol-5-yl]-2-(2-phenylethyl)piperidine-1-carboxylate] | 8 nM |
| O=C(Cc1cccc2ccccc12)N1CCCC(c2cc(-c3ccc(F)cc3)nn2-c2ncccn2)C1 (stereo not shown) [Example 17] | 1.2 nM |
| O=C(CC1CCCCC1)N1CCCC(c2cc(-c3ccc(F)cc3)nn2-c2ncccn2)C1 (stereo not shown) [Example 36] | 30 nM |
| COC(=O)N1C[C@@H](c2cc(-c3ccc(Cl)cc3)nn2-c2ncccn2)CC[C@@H]1c1ccccc1 (mixture of isomers) [Example 13] | 1.3 nM |
| O=C(Cc1ccccc1C(F)(F)F)N1CCCC(c2cc(-c3ccc(F)cc3)nn2-c2ncccn2)C1 (stereo not shown) [Example 20] | 0.65 nM |
| Fc1ccc(-c2cc([C@H]3CC[C@H](c4ccccc4)NC3)n(-c3ncccn3)n2)cc1 (mixture of isomers) [Example 4] | 4.1 nM |
| Clc1ccc(-c2cc(C3CNC(CCc4ccccc4)CO3)n(-c3ncccn3)n2)cc1 (single isomer, unassigned) [Example 8, 2-[3-(4-Chlorophenyl)-1-(pyrimidin-2-yl)-1H-pyrazol-5-yl]-5-(2-phenylethyl)morpholine] | 12 nM |
| CNC(=O)N1C[C@@H](c2cc(-c3ccc(F)cc3)nn2-c2ncccn2)CC[C@@H]1c1ccccc1 (mixture of isomers) [Example 95] | 10 nM |
| Fc1ccc(-c2cc([C@@H]3CC[C@H](CCc4ccccc4)NC3)n(-c3ncccn3)n2)cc1 (racemic) [Example 6, 2-{3-(4-Fluorophenyl)-5-[6-(2-phenylethyl)piperidin-3-yl]-1H-pyrazol-1-yl}pyrimidine] | 2.1 nM |
| O=S(=O)(CCC(F)(F)F)N1CCCC(c2cc(-c3ccc(F)cc3)nn2-c2ncccn2)C1 (stereo not shown) [Example 109] | 4.5 nM |

test system: rats; assay: not given; conditions: intracerebroventricular; cited from earlier work

| Compound | overnight food intake |
| --- | --- |
| t-butyl carbamate-prolyl prolinal [BPP] | suppression of overnight food intake |
